The test system of experiment [1] is CRS mice. Put plainly: Open field test (OFT, total distance). It counts as in vivo, mouse. The following applies: single intraperitoneal 3 nmol/g, 1 hour after treatment (FIG. 12). As to the method:
(§1) The C57BL/6J mice were horizontally fixed for 6 h (from 10 to 16 o'clock) in a first acrylic restraint which is cylindrical and flat-bottomed (25×90 mm) every day for 2 weeks. The filter had several slots which could adapt to the size of each mouse to firmly restrain the mouse and inhibit body movements of the limb and trunk without causing pain. Immediately after being restrained, the mice were sent back to their cages. Unrestrained mice (control) stayed in their cages when no CRS procedure was performed. Neither the control mice nor the CRS mice could have access to food and water during the CRS exposure.
(§2) The C57BL/6J mice were subjected to various stress including restraint (for 4 h), cage tilting (for 45 times, with 12 h each time), light-dark cycle reversal (once), flash (for 12 h), and dirty cage (for 2 times, with 14 h each time). The protocol lasted 6 weeks. Control mice were not subjected to corresponding stress.
(§3) The mice were treated with TAT or TAT-D2R-KL (single intraperitoneal administration at 3 nmol/g in both cases). […]
OFT (for testing the total distance): The mice were acclimated to the experimental environment for 1 h and placed in a chamber of 45 cm×45 cm×30 cm. A video was recorded for 5 min to observe the motional activity of the mice. The total distance covered by the mice was measured, analyzed and expressed in millimeters.

A further experiment deals with T1, D2R/5-HT2CR complex (Mus musculus, UniProt P34968).
T1 construct: from tissue
T1 sequence (P34968 33-459): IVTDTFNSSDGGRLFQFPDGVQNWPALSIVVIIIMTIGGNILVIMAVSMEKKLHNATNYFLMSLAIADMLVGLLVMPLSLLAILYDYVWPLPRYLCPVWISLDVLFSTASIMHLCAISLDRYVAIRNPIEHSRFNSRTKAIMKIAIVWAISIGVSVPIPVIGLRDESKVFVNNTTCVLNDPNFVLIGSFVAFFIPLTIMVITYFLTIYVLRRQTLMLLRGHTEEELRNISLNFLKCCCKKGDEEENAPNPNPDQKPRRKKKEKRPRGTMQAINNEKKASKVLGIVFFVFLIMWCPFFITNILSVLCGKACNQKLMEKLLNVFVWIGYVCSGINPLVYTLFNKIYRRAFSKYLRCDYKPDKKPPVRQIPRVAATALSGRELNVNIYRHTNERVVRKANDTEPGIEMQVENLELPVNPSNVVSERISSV
Put plainly: Co-immunoprecipitation of hippocampal tissue of polypeptide-treated SPS mice. It counts as in vivo. Conditions: intraperitoneal, 1.5 h (FIG. 7 left). The procedure: Co-immunoprecipitation was performed using protein samples (with 100-500 μg protein) from the hippocampal tissue of the Balb/c mice. Mouse monoclonal antibodies against both 5-HT2CR and D2R, D2R, or 5-HT2CR were used for precipitation with 25 μl of the slurry of protein A/G+agarose beads (SantaCruz Biotechnology, sc-2001).
Western blotting analysis after precipitation: Denatured (at 100° C. for 10 min) proteins were separated on an 8% SDS-PAGE gel, then transferred to a nitrocellulose membrane, which was then blocked with skim milk in TBST (Tris-buffered saline with 0.1% Tween 20). Next, incubation was carried out with the primary antibodies at 4° C. overnight. Finally, treatment with an HRP-conjugated secondary antibody were performed for 1 h, signals were detected using the ECL UltraSignal chemiluminescence kit (4A Biotech, cat. no. 4AW011-500), and the bands were analyzed for densities using the Image Lab software.
The SPS model was established with male Balb/c mice. […]
The fear conditioning, safety learning, and recall tests were carried out in two contexts (the fear conditioning and safety learning tests were carried out in context A; and the recall test was carried out in context B). […] After the experiment was completed, the freezing level was manually calculated based on the recorded video. […]

Experiment [2] has as its system CRS mice. Put plainly: Sucrose preference test (SPT). In kind it is in vivo, mouse. Conditions: single intraperitoneal 3 nmol/g, compared with TAT-treated mice (FIG. 12). The procedure:
as §1, §2, §3
SPT (Sucrose preference test): A two-bottle choice paradigm was adopted. […] Finally, the volume of consumed water or sucrose solution was recorded and calculation was carried out with the following equation (I): […]

The test system of experiment [3] is CRS mice. Put plainly: Elevated plus maze (EPM) test. It counts as in vivo, mouse. Conditions: single intraperitoneal 3 nmol/g, 1 hour later (FIG. 14). The procedure: as §1
In order to evaluate the anti-anxiety-like effect of the polypeptide of the present invention, a CRS mouse model was established using the method in Example 6. […]
EPM: The device consisted of two open arms (25 cm×8 cm) and two closed arms (25 cm×8 cm) with the intersection as the central area (8 cm×8 cm), elevated 40 cm above the ground. One hour after the polypeptide treatment, the mice were placed in the central area facing an open arm, and their free movements were recorded for 5 min. […] The time spent in an open arm, the time spent in a closed arm, and the total moving distance of the mice were recorded.

Consider “TAT-D2R-KL: C-terminus of the KL (K226-L240) region of D2R fused to the transduction domain of HIV-1 Tat protein (SEQ ID NO: 5)”, for which, in the experiment with CRS mice [1], the “overall movement ability (total distance)” value is given as “had no effect”. Moreover, the “interaction between 5-HT2CR and D2R” value with D2R/5-HT2CR complex was “decrease”. The sucrose preference result with CRS mice [2] is reported as “significantly enhanced”. Further, in the experiment on CRS mice [3], the “time spent in an open arm” value is reported as “significantly increased”.

The record behind these values is patent publication US20260183408A1, “POLYPEPTIDE AND USE THEREOF” (SHENZHEN CHENYANG BIOLOGICAL TECHNOLOGY CO., LTD, priority 2022, published 2026).
